According to paper PMC12655819 (Pharmaceuticals, 2025):
Like-named read-outs stand apart in the source and are kept apart here. Marks after values point to notes of the source that are not given here. Each block holds one molecule with its values, some of them ahead of it.

How the values were obtained:
[1] = Pharmacokinetics from plasma unbound levels in plasma ultrafiltrate (fMPA, fMPAG); type: in vivo, human; details: free level in plasma ultrafiltrate; for AUC(0–4) Normalized to Drug Dose: normalized to MMF dose; for Cmax: pediatric renal transplant recipients (n = 20) on MMF (CellCept), steady state, 0–4 h post-dose
Procedure: The AUC0–4, Tmax, and Cmax parameters were calculated using the R (version 4.5.1) package software (R Core Team, 2025), supported by RStudio (version 2025.05.1+513) from Posit PBC software (Boston, MA, USA). […] The vMPA and vMPAG capillary blood levels were corrected using formulas validated in our department (partially published by Kocur et al.) and expressed as estimated capillary plasma concentrations. […] Individual PK profiles for each patient included in the study are provided in the Supplementary File (Figures S4 and S5).
Next, the sample was centrifuged at 3000× g for 5 min at ambient conditions, and the supernatant was transferred into a chromatographic vial. Sample processing was performed at the Department of Drug Chemistry, Pharmaceutical and Biomedical Analysis, Medical University of Warsaw, Poland.
From each patient (if they consented to all sampling types), four samples were collected simultaneously at all defined time points of the dynamic PK profile (0, 0.5, 1, 2, and 4 h after drug administration). Whole blood was collected using standard venipuncture by a phlebotomist into a K3-EDTA test tube (Sarstedt, Nümbrecht, Germany). Plasma for analytical determination was obtained by centrifuging a portion of the whole blood and stored at −40 °C until assay. At the same time, 10 µL capillary blood samples were collected from a finger prick using the Mitra™ device (VAMS samples were stored in light-protected aluminum zip bags with desiccant at room temperature).

[2] = Stability of analytes in dried saliva Mitra VAMS tips; type: physicochemical; details: n=6; for recovery at 1 week / recovery at 2 weeks / recovery at 24 hours / recovery at 3 days: dried saliva on Mitra VAMS tips, room temperature (light-protected with desiccant); for stability, mean recovery: room temperature (with daily light exposure)
Procedure: Stability testing, a crucial component of method development and validation, was conducted through various experiments, including storage stability in the autosampler and stability of analytes in VAMS tips under different stress conditions. Analyte stability is deemed acceptable if the differences stay within the nominal range of ±15%. Additionally, the reproducibility of the injection was assessed during autosampler stability testing.

[3] = pediatric renal transplant recipients (n = 20) on MMF, mean (range)

AUC(0–4) Normalized to Drug Dose ([1]; n = 20, mean (range)): 0.596 (0.042–1.577) ^d mg × h/mL × g
concentration at 0 h ([1]; human, plasma ultrafiltrate (unbound level in EDTA plasma), 0 h (pre-dose), n = 20, mean ± SD, read-out: C0 concentration): 22 ± 16 ng/mL
concentration at 0.5 h ([1]; human, plasma ultrafiltrate (unbound level in EDTA plasma), 0.5 h post-dose, n = 20, mean ± SD, read-out: C0.5 concentration): 104 ± 125 ng/mL
concentration at 1 h ([1]; human, plasma ultrafiltrate (unbound level in EDTA plasma), 1 h post-dose, n = 20, mean ± SD, read-out: C1 concentration): 149 ± 146 ng/mL
concentration at 2 h ([1]; human, plasma ultrafiltrate (unbound level in EDTA plasma), 2 h post-dose, n = 20, mean ± SD, read-out: C2 concentration): 49 ± 41 ng/mL
concentration at 4 h ([1]; human, plasma ultrafiltrate (unbound level in EDTA plasma), 4 h post-dose, n = 20, mean ± SD, read-out: C4 concentration): 31 ± 50 ng/mL
Cmax ([1]; human, plasma ultrafiltrate (unbound level in EDTA plasma), mean (range), read-out: Cmax): 160 ng/mL
AUC(0-t) ([1]; human, plasma ultrafiltrate (unbound level in EDTA plasma), pediatric renal transplant recipients (n = 20) on MMF, mean (range)): 276 ng·h/mL
Tmax ([1]; human, plasma ultrafiltrate (unbound level in EDTA plasma), pediatric renal transplant recipients (n = 20) on MMF, mean (range), read-out: Tmax): 54 min
recovery at 1 week ([2]; HQC, 1 week): 97.2%
recovery at 2 weeks ([2]; HQC, 2 weeks): 96%
recovery at 24 hours ([2]; HQC, 24 hours): 99.9%
recovery at 3 days ([2]; HQC, 3 days): 100%
recovery at 1 week ([2]; LQC, 1 week): 98%
recovery at 2 weeks ([2]; LQC, 2 weeks): 95.6%
recovery at 24 hours ([2]; LQC, 24 hours): 101%
recovery at 3 days ([2]; LQC, 3 days): 99.1%
SMILES: COc1c(C)c2c(c(O)c1C/C=C(\C)CCC(=O)O)C(=O)OC2 [MPA, Mycophenolic acid]

C0 concentration ([1]; 0 h (pre-dose), n = 20, mean ± SD): 3893 ± 2073 ng/mL
C0.5 concentration ([1]; 0.5 h post-dose, n = 20, mean ± SD): 6264 ± 4238 ng/mL
C1 concentration ([1]; 1 h post-dose, n = 20, mean ± SD): 8.029 ± 4.393 mg/L
C2 concentration ([1]; 2 h post-dose, n = 20, mean ± SD): 6.889 ± 3.791 mg/L
C4 concentration ([1]; 4 h post-dose, n = 20, mean ± SD): 4.701 ± 2.218 mg/L
AUC(0–4) Normalized to Drug Dose ([1]; n = 20, mean (range)): 66.47 (19.97–195.68) ^d mg × h/mL × g
Cmax ([1]; mean (range)): 8.98 (3.85–19.81) mg/L
AUC(0–4) [1, 3]: 25200 ng·h/mL
Tmax [1, 3]: 1.55 (0.50–2.00) h
stability, mean recovery ([2]; HQC, 1 week): 96.66%
stability, mean recovery ([2]; HQC, 2 weeks): 94.51%
stability, mean recovery ([2]; HQC, 24 hours): 100.16%
stability, mean recovery ([2]; HQC, 3 days): 98.94%
stability, mean recovery ([2]; LQC, 1 week): 99.67%
stability, mean recovery ([2]; LQC, 2 weeks): 97.25%
stability, mean recovery ([2]; LQC, 24 hours): 103.15%
stability, mean recovery ([2]; LQC, 3 days): 100.46%
SMILES: COc1c(C)c2c(c(O[C@@H]3O[C@H](C(=O)O)[C@@H](O)[C@H](O)[C@H]3O)c1C/C=C(\C)CCC(=O)O)C(=O)OC2 [MPAG, mycophenolic acid glucuronide]
